From patent US5534533A, “Carboxylate derivatives exhibiting phospholipase A2 inhibitory activity” (Shionogi & Co., Ltd., priority 1993, dated 1996)

Tests used:
[1] = biological target: T1, Human secretory PLA2 (Homo sapiens, UniProt P14555); experiment: Secretory PLA2 inhibitory activity (diheptanoyl thio PC substrate, absorbance at 405 nm); assay type: biochemical; conditions: diheptanoyl thio PC 1 mM, Triton X100 0.3 mM, pH 7.3, CaCl2 10 mM, 30 minutes, read-out: s-PLA2 Inhibition IC50
T1 sequence (P14555 21-144): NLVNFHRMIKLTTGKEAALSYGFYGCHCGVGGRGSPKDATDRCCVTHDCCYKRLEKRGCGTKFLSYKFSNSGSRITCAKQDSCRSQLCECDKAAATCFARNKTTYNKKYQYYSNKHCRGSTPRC
Protocol: Secretory PLA2 activity was assayed according to the method described in Penynolds L. J., Hughes L. L., Dennis E. A. et al. Anal. Biochem. 201,190-197 (1992).
Diheptanoyl thiophosphatidylcholine which was prepared according to the procedure described in the literature was used as a substrate. Human secretory PLA2 was used as an enzyme. The diheptanoyl thio PC (1 mM) was reacted with the human secretory PLA2 in the presence of Triton X100 (0.3 mM) and 5,5'-dithiobis-(2-nitrobenzoic acid) (125 μM) in Tris buffer (25 mM, pH 7.3), CaCl2 (10 mM), KCI (100 mM), bovine serum albumin (1.0 mg/ml), and then the change in absorbance at 405 nm at the time of 30 minutes after the reaction was assayed.
Inhibitory activity (%) was estimated by the formula: [(the change in absorbance with the inhibitor and PLA2 ·the change in absorbance with the inhibitor and without PLA2)/(the change in absorbance without the inhibitor and with PLA2 ·the change in absorbance without the inhibitor and PLA2)]×100.
IC50 value (μM) was calculated from graph showing inhibitory values on the vertical axis and log of concentrations of the inhibitor on the horizontal axis.

[2] = biological target: T2, intracellular PLA2 (cytosolic PLA2, cPLA2) (Homo sapiens, UniProt P47712); experiment: Intracellular PLA2 (cPLA2) inhibitory activity (14C-arachidonyl phosphatidylcholine substrate); assay type: biochemical; conditions: 2 μM radiolabelled phosphatidylcholine, 1 μM dioleoylglycerol, 1 mM CaCl2, pH 7.4; read-out: c-PLA2 Inhibition IC50
T2 sequence (P47712 1-749): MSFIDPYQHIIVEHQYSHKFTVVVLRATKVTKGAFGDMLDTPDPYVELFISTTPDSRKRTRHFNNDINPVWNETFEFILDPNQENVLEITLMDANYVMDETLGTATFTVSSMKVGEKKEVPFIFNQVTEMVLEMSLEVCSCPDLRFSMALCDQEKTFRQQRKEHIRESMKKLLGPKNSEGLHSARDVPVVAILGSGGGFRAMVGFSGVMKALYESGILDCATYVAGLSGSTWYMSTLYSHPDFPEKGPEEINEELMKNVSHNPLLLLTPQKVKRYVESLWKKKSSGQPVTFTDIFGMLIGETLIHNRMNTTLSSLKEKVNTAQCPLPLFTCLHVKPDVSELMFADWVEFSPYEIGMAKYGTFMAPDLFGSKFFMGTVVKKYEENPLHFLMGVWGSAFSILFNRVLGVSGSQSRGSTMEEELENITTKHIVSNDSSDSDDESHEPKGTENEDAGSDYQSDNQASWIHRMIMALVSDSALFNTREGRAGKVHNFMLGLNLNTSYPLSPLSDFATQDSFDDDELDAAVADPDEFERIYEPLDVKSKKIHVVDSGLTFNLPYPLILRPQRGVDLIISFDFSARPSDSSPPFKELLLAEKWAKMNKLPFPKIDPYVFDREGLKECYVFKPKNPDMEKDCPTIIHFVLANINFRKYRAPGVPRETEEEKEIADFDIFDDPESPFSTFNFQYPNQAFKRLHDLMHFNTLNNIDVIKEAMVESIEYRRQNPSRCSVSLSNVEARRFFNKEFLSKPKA
Protocol: cPLA2 activity was assayed according to the method described in R. M. Kramer, E. F. Roberts, J. Manetta and J. E. Putnam, J. Biol. Chem., 268 (8), 5268-5272 (1991). Briefly, intracellular PLA2 activity was assayed using supersonic treated […] which contain 1-palmitoyl-2-[^14 C]arachidonyl-sn-glycero-3-phosphocholine and sn-1, 2-dioleoylglycerol at a molar ratio of 2:1. This test mixture contained 1 mM CaCl2, 2 mM dithiothreitol, 150 mM NaCl, 50 mM Hepes, pH 7.4 and 0.1 mg/ml BSA. A substrate is a 2 μM radioisotope labelled phosphatidylcholine ribosome containing 1 μM dioleoylglycerol. IC50 value is calculating in the same manner as in calculating it for secretory PLA2 inhibitory activity.

Row | SMILES | IC50 [1] [µM] | IC50 [2] [µM]
1 | COc1c(C)c(OC(=O)c2c(C)c(C)c(OCCCOc3ccc4ccccc4c3)c(C)c2OC)c(C)c(C)c1C(=O)O [Example 19, 4-[2-Methoxy-3,5,6-trimethyl-4-[3-(2-naphthyloxy)-propyloxy]phenylcarboxy]-2-methoxy-3,5,6-trimethylbenzoic acid] | 16 | 1.8
2 | COc1c(C(C)(C)C)cc(SCCCOc2c(C)c(C)c(C(=O)Oc3c(C)c(C)c(C(=O)O)c(OC)c3C)c(OC)c2C)cc1C(C)(C)C [Example 7, 4-[4-[3-(3,5-Di-tert-butyl-4-methoxyphenylthio)propyloxy]-2-methoxy-3,5,6-trimethylphenylcarboxy]-2-methoxy-3,5,6-trimethylbenzoic acid] | > 50 | 0.54
3 | COc1c(C)c(OC(=O)c2c(C)c(C)c(OCCCN(C(=O)OC(C)(C)C)S(C)(=O)=O)c(C)c2OC)c(C)c(C)c1C(=O)O [Example 59, 4-[4-(3-t-Butoxycarbonylmethylsulfonylaminopropoxy)-2-methoxy-3,5,6-trimethylbenzoyloxy]-2-methoxy-3,5,6-trimethylbenzoic Acid] | 11 | > 50
4 | COc1c(C)c(OC(=O)c2c(C)c(C)c(OCCCN(S(=O)(=O)c3ccccc3)S(=O)(=O)c3ccccc3)c(C)c2OC)c(C)c(C)c1C(=O)O [Example 51, 4-{4-[(3-Bisphenylsulfonylamino)propoxy]-2-methoxy-3,5,6-trimethylbenzoyloxy}-2-methoxy-3,5,6-trimethylbenzoic Acid] | 2.1 | 4.2
5 | COc1c(C)c(OC(=O)c2c(C)c(C)c(OCCC3=CCC4CC3C4(C)C)c(C)c2OC)c(C)c(C)c1C(=O)O (single isomer, unassigned) [Example 49, 4-{4-[2-(6,6-Dimetheylbicyclo[3.1.1]hept-2-en-2-yl)ethoxy]-2-methoxy-3,5,6-trimethylbenzoyloxy}-2-methoxy-3,5,6-trimethylbenzoic Acid] | 44 | 4.1
6 | COc1c(C)c(OC(=O)c2c(C)c(C)c(OCCCOc3ccc(Cl)cc3Cl)c(C)c2OC)c(C)c(C)c1C(=O)O [Example 24, 4-{4-[3-(2,4-Dichlorophenoxy)propoxy]-2-methoxy-3,5,6-trimethylbenzoyloxy}-2-methoxy-3,5,6-trimethylbenzoic Acid] | 12 | 2.8
7 | COc1c(C)c(OC(=O)c2c(C)c(C)c(OCCCOc3c(F)cccc3F)c(C)c2OC)c(C)c(C)c1C(=O)O [Example 38, 4-{4-[3-(2,6-Difluorophenoxy)propoxy]-2-methoxy-3,5,6-trimethylbenzoyloxy}-2-methoxy-3,5,6-trimethylbenzoic Acid] | 6.7 | 7.1
8 | COc1ccc(OCCCOc2c(C)c(C)c(C(=O)Oc3c(C)c(C)c(C(=O)O)c(OC)c3C)c(OC)c2C)cc1OC [Example 20, 4-[4-[3-(3,4-Dimethoxyphenoxy)propyloxy]-2-methoxy-3,5,6-trimethylphenylcarboxy]-2-methoxy-3,5,6-trimethylbenzoic acid] | 11 | 35
9 | COc1c(C)c(OC(=O)c2c(C)c(C)c(OCCCOc3ccc(C(N)=O)cc3)c(C)c2OC)c(C)c(C)c1C(N)=O [Example 45, 4-{4-[3-(4-Carbamoylphenoxy)propoxy]-2-methoxy-3,5,6-trimethylbenzoyloxy}-2-methoxy-3,5,6-trimethylbenzamide] | 0.29 | > 50
10 | COc1c(C(C)(C)C)cc(SCCCCCCOc2c(C)c(C)c(C(=O)O)c(OC)c2C)cc1C(C)(C)C [Example 13, 4-[6-(3,5-Di-tert-butyl-4-methoxyphenylthio)hexyloxy]-2-methoxy-3,5,6-trimethylbenzoic acid] | > 50 | 1.9
11 | COc1c(C)c(OC(=O)c2c(C)c(C)c(OCCCCCCOc3ccc(Cl)cc3)c(C)c2OC)c(C)c(C)c1C(=O)O [Example 11, 4-[4-[6-(4-Chlorophenoxy)hexyloxy]-2-methoxy-3,5,6-trimethylphenylcarboxy]-2-methoxy-3,5,6-trimethylbenzoic acid] | 14 | 4.8
12 | COc1ccccc1OCCCOc1c(C)c(C)c(C(=O)Oc2c(C)c(C)c(C(=O)O)c(OC)c2C)c(OC)c1C [Example 39, 4-{4-[3-(2-Methoxyphenoxy)propoxy]-2-methoxy-3,5,6-trimethylbenzoyloxy}-2-methoxy-3,5,6-trimethylbenzoic Acid] | 8.9 | 12

Other lines, results leading:

Row | IC50 [1] [µM] | IC50 [2] [µM] | SMILES
13 | 3.8 | 9.5 | COc1c(C)c(OC(=O)c2c(C)c(C)c(OCCCN(C(=O)c3ccccc3)C(=O)c3ccccc3)c(C)c2OC)c(C)c(C)c1C(=O)O [Example 62, 4-[4-(3-Dibenzoylaminopropoxy)-2-methoxy-3,5,6-trimethylbenzoyloxy}-2-methoxy-3,5,6-trimethylbenzoic Acid]
14 | 6.4 | 25 | COc1c(C)c(OC(=O)c2c(C)c(C)c(OCCCN3C(=O)c4ccccc4C3=O)c(C)c2OC)c(C)c(C)c1C(=O)O [Example 64, 4-{4-[3-(1,3-Dioxo-1,3-dihydroisoindol-2-yl)-propoxy]-2-methoxy-3,5,6-trimethylbenzoyloxy}-2-methoxy-3,5,6-trimethylbenzoic Acid]
15 | 6.8 | 6.3 | COc1c(C)c(OC(=O)c2c(C)c(C)c(OCCCN(S(=O)(=O)c3ccc(F)cc3)S(=O)(=O)c3ccc(F)cc3)c(C)c2OC)c(C)c(C)c1C(=O)O [Example 55, 4-{4-[3-bis(4-Fluorophenyl)sulfonylaminopropoxy]-2-methoxy-3,5,6-trimethylbenzoyloxy}-2-methoxy-3,5,6-trimethylbenzoic Acid]
16 | 17 | 11 | COc1c(C)c(OC(=O)c2c(C)c(C)c(OCCCN3CCN(C(c4ccc(F)cc4)c4ccc(F)cc4)CC3)c(C)c2OC)c(C)c(C)c1C(=O)O [Example 68, 4-{4-[3-(Di-4-Fluorophenylmethylpiperazin-1-yl)-propoxy]-2-methoxy-3,5,6-trimethylbenzoyloxy}-2-methoxy-3,5,6-trimethylbenzoic Acid]
17 | 17 | > 50 | COc1c(C)c(OC(=O)c2c(C)c(C)c(OCCCNS(=O)(=O)c3ccccc3)c(C)c2OC)c(C)c(C)c1C(=O)O [Example 54, 4-{4-[(3-Phenylsulfonylamino)propoxy]-2-methoxy-3,5,6-trimethylbenzoyloxy}-2-methoxy-3,5,6-trimethylbenzoic Acid]
18 | 18 | 6.8 | COc1c(C)c(OC(=O)c2c(C)c(C)c(OCCCN3CCC(=C(c4ccccc4)c4ccccc4)CC3)c(C)c2OC)c(C)c(C)c1C(=O)O [Example 66, 4-{4-[3-(4-Benzhydrylidenepiperidin-1-yl)-propoxy]-2-methoxy-3,5,6-trimethylbenzoyloxy}-2-methoxy-3,5,6-trimethylbenzoic Acid]
19 | 6.7 | 21 | COc1c(C)c(OC(=O)c2c(C)c(C)c(OCCCN3C(=O)c4ccccc4S3(=O)=O)c(C)c2OC)c(C)c(C)c1C(=O)O [Example 65, 4-{4-[3-(1, 1 -Dihydroxy-3-oxo-3H-benzo[d]-isothiazole-2-yl)propoxy]-2-methoxy-3,5,6-trimethylbenzoyloxy}-2-methoxy-3,5,6-trimethylbenzoic Acid]
